Measurements published in EPA's ToxRefDB 2.

Legend:
[1] = tested on: rat; settings: Subchronic oral toxicity in rodents, sprague dawley, Feed, dose end: 90 day, group: systemic, systemic / clinical chemistry / alkaline phosphatase (alp/alk) / alkaline phosphatase (alp/alk) + systemic / hematology / mean corpuscular …
[2] = tested on: rat; settings: Combined chronic toxicity/carcinogenicity, sprague dawley, Oral, Feed, dose end: 24 month, group: systemic
[3] = tested on: dog; settings: Chronic toxicity, beagle, Oral, Feed, dose end: 1 year, group: systemic
[4] = tested on: rat; settings: Prenatal developmental toxicity study, sprague dawley, Oral, Gavage/Intubation, dose end: 15 GD
[5] = tested on: dog; settings: Subchronic oral toxicity in nonrodent, beagle, Feed, dose end: 90 day, group: systemic
[6] = tested on: rat; settings: Subchronic oral toxicity in rodents, fischer, Gavage/Intubation, dose end: 3 month, group: systemic
[7] = tested on: mouse; settings: Subchronic oral toxicity in rodents, b6c3f1, Gavage/Intubation, dose end: 3 month, group: systemic
[8] = tested on: rabbit; settings: Prenatal developmental toxicity study, himalayan, Oral, Gavage/Intubation, dose end: 18 GD
[9] = tested on: rat; settings: Subchronic oral toxicity in rodents, wistar, Feed, dose end: 86 day
[10] = tested on: dog; settings: Chronic toxicity, beagle, Oral, Feed, dose end: 1 year, group: cholinesterase
[11] = tested on: mouse; settings: Combined chronic toxicity/carcinogenicity, b6c3f1, Oral, Feed, dose end: 2 year
[12] = systemic / clinical chemistry / gamma glutamyl transferase (ggt) / gamma glutamyl transferase (ggt) + systemic / organ weight / kidney / …
[13] = systemic / hematology / anemia / anemia - hemolytic + systemic / hematology / erythrocyte (rbc) count differential / erythrocyte (rbc) + …
[14] = systemic / pathology microscopic / liver / hyperplasia + systemic / pathology microscopic / liver / hypertrophy + systemic / clinical …
[15] = group: developmental, developmental / developmental malformation / bone / supernumerary + developmental / developmental malformation / bone / unossified
[16] = group: maternal, systemic / in life observation / body weight / body weight gain + systemic / in life observation / clinical signs / salivation + systemic / …
[17] = systemic / in life observation / body weight / body weight gain + systemic / clinical chemistry / alanine aminotransferase (alt/sgpt) / …
[18] = systemic / clinical chemistry / alanine aminotransferase (alt/sgpt) / alanine aminotransferase (alt/sgpt) + systemic / clinical chemistry / …
[19] = systemic / pathology microscopic / liver / hyperplasia + systemic / pathology microscopic / liver / inflammation + systemic / hematology / …
[20] = systemic / in life observation / body weight / body weight + systemic / in life observation / body weight / body weight gain + systemic / in…
[21] = group: cholinesterase, cholinesterase / cholinesterase / cholinesterase / erythrocyte cholinesterase (che)
[22] = group: maternal, reproductive / reproductive performance / resorptions / resorptions + reproductive / reproductive performance / aborted / aborted + systemic…
[23] = group: cholinesterase, cholinesterase / cholinesterase / cholinesterase / brain (regional) cholinesterase (che) + cholinesterase / cholinesterase / cholinesterase…
[24] = group: systemic, systemic / pathology microscopic / seminal vesicle / colloid content
[25] = cholinesterase / cholinesterase / cholinesterase / brain cholinesterase (che) + cholinesterase / cholinesterase / cholinesterase / plasma …
[26] = cholinesterase / cholinesterase / cholinesterase / brain cholinesterase (che) + cholinesterase / cholinesterase / cholinesterase / …
[27] = group: systemic, systemic / in life observation / body weight / body weight + systemic / in life observation / body weight / body weight gain + systemic / in…
[28] = group: systemic, systemic / organ weight / adrenal gland / nos

Q: What does the source list for `COC(=O)c1c(C(F)F)nc(C(F)(F)F)c(C2=NCCS2)c1CC(C)C` [Thiazopyr]?
A: LEL [1]: 68 mg/kg/day; LOAEL [1]: 68 mg/kg/day; NEL [1]: 6.6 mg/kg/day; NOAEL [1]: 6.6 mg/kg/day; LOAEL [2, 12]: 44.2 mg/kg/day; NOAEL [2, 12]: 4.4 mg/kg/day; LEL [2, 13]: 5.6 mg/kg/day; NEL [2, 13]: 0.6 mg/kg/day; LOAEL ([3]; systemic / pathology microscopic / liver / hyperplasia + systemic / pathology microscopic / liver / hypertrophy): 7.8 mg/kg/day; LEL [3, 14]: 7.8 mg/kg/day; NEL [3, 14]: 0.8 mg/kg/day; NOAEL [3, 14]: 0.8 mg/kg/day; LEL [4, 15]: 250 mg/kg/day; LOAEL [4, 15]: 250 mg/kg/day; NEL [4, 15]: 100 mg/kg/day; NOAEL [4, 15]: 100 mg/kg/day; LOAEL [4, 16]: 250 mg/kg/day; NEL [4, 16]: 10 mg/kg/day; NOAEL [4, 16]: 100 mg/kg/day; LEL ([4]; group: maternal, systemic / organ weight / liver / nos): 100 mg/kg/day; LOAEL ([5]; systemic / in life observation / body weight / body weight gain): 3 mg/kg/day; NEL [5, 17]: 2 mg/kg/day; NOAEL [5, 17]: 2 mg/kg/day; LEL ([5]; systemic / in life observation / body weight / body weight gain + systemic / clinical chemistry / albumin-globulin ratio / albumin-globulin …): 3 mg/kg/day

Q: Which LOAEL [6, 18] does the source give for `C=CCc1ccc(OC)cc1` [Estragole] here?
A: > 600 mg/kg/day

Q: What about the NOAEL [6, 18] of the same compound?
A: ≥ 600 mg/kg/day

Q: What about the LEL [6, 19] of the same compound?
A: 37.5 mg/kg/day

Q: What about the NEL [6, 19] of the same compound?
A: < 37.5 mg/kg/day

Q: What about the LOAEL [7, 20] of the same compound?
A: > 600 mg/kg/day

Q: And the NEL [7, 20]?
A: 37.5 mg/kg/day

Q: What about the NOAEL [7, 20] of the same compound?
A: ≥ 600 mg/kg/day

Q: What about the LEL ([7]; systemic / in life observation / body weight / body weight + systemic / in life observation / body weight / body weight gain + systemic / …) of the same compound?
A: 75 mg/kg/day

Q: For `CCOP(=S)(Oc1cnc(C(C)(C)C)nc1)OC(C)C` (stereo not given) [Tebupirimfos], which LEL [8, 21] is on record?
A: 0.3 mg/kg/day

Q: And the LOAEL [8, 21]?
A: 0.3 mg/kg/day

Q: What about the NEL [8, 21] of the same compound?
A: 0.1 mg/kg/day

Q: And the NOAEL [8, 21]?
A: 0.1 mg/kg/day

Q: And the LOAEL ([8]; group: maternal, reproductive / reproductive performance / resorptions / resorptions + reproductive / offspring survival early / live fetuses / live fetuses)?
A: 0.3 mg/kg/day

Q: What about the LEL ([8]; group: maternal, reproductive / reproductive performance / resorptions / resorptions + reproductive / offspring survival early / live fetuses / live fetuses…) of the same compound?
A: 0.3 mg/kg/day

Q: What about the NEL [8, 22] of the same compound?
A: 0.1 mg/kg/day

Q: And the NOAEL [8, 22]?
A: 0.1 mg/kg/day

Q: What about the LOAEL [9, 23] of the same compound?
A: 1 mg/kg/day

Q: And the NEL [9, 23]?
A: 0.2 mg/kg/day

Q: And the NOAEL [9, 23]?
A: 0.3 mg/kg/day

Q: What about the LEL [9, 21] of the same compound?
A: 0.3 mg/kg/day

Q: And the LOAEL ([9]; group: systemic, systemic / in life observation / body weight / body weight gain + systemic / in life observation / food consumption / food consumption)?
A: 3.6 mg/kg/day

Q: What about the NOAEL ([9]; group: systemic, systemic / in life observation / body weight / body weight gain + systemic / in life observation / food consumption / food consumption + …) of the same compound?
A: 1 mg/kg/day

Q: And the LEL [9, 24]?
A: 0.2 mg/kg/day

Q: What about the NEL [9, 24] of the same compound?
A: < 0.2 mg/kg/day

Q: What about the LEL [10, 25] of the same compound?
A: 0.005 mg/kg/day

Q: And the NEL [10, 25]?
A: < 0.005 mg/kg/day

Q: What about the LOAEL [10, 26] of the same compound?
A: 0.125 mg/kg/day

Q: And the NOAEL [10, 26]?
A: 0.02 mg/kg/day

Q: And the LEL [11, 21]?
A: 0.16 mg/kg/day

Q: What about the LOAEL [11, 21] of the same compound?
A: 0.16 mg/kg/day

Q: And the NEL [11, 21]?
A: < 0.16 mg/kg/day

Q: What about the NOAEL [11, 21] of the same compound?
A: < 0.16 mg/kg/day

Q: And the LOAEL [11, 27]?
A: 38.8 mg/kg/day

Q: What about the NOAEL [11, 27] of the same compound?
A: 4.53 mg/kg/day

Q: And the LEL [11, 28]?
A: 0.52 mg/kg/day

Q: What about the NEL [11, 28] of the same compound?
A: < 0.52 mg/kg/day
